According to patent US11890292B2, “Compositions, methods, systems and/or kits for preventing and/or treating neoplasms” (Research Cancer Institute of America, priority 2017, dated 2024):

Columns and labels:
[1] = cited from earlier work
glioma cells = settings: cited from earlier work
one or more cancers = settings: cyclophosphamide only
Text: One or more patients are identified who have one or more cancers selected from lung carcinoma, prostate cancer, gliaoblastoma multiform, hormone refractory prostate cancer, solid tumor malignancies such as colon carcinoma, non-small cell lung cancer (NSCLC), anaplastic astrocytoma, bladder carcinoma, sarcoma, ovarian carcinoma, rectal hemangiopericytoma, pancreatic carcinoma, advanced cancer, cancer of large bowel, stomach, pancreas, ovaries, melanoma pancreatic cancer, colon cancer, and bladder cancer.
The one or more patients are administered a formulation comprising cyclophosphamide only. […] On the day of the next administration and prior to the administration, as assessment of the outcome of treatment until that point is conducted and compared to all previous assessments.
Patients are then administered a combination of cyclophosphamide and quercetin and SPB. […] An assessment of the outcome of treatment is periodically made.

Row | Structure (SMILES) | water solubility [1] | angiogenesis in glioma cells (glioma cells) | response of the cancers following the initial response period (one or more cancers)
1 | O=c1c(O)c(-c2ccc(O)c(O)c2)oc2cc(O)cc(O)c12 [Quercetin, quercetin] | not water soluble | suppression of angiogenesis | –
2 | O=P1(N(CCCl)CCCl)NCCCO1 (stereo not drawn) [cyclophosphamide] | – | – | become resistant
